Values quoted from earlier work in US20100080846A1, “DIPYRIDAMOLE AND […] ACID FORMULATIONS AND PROCESS FOR PREPARING SAME” (priority 2008, published 2010).

Conditions: above a pH of 4

solubility in water: practically insoluble
Compound: OCCN(CCO)c1nc(N2CCCCC2)c2nc(N(CCO)CCO)nc(N3CCCCC3)c2n1 [Dipyridamole, 2,6-bis-(diethanolamino)-4,8-dipiperidino-(5,4-d)-pyrimidine]
